Results on twelve compounds are retold here after patent US20230121771A1, “A PHARMACEUTICAL COMBINATION OF AN ARTEMISININ COMPOUND, 5-AMINOLEVULINIC ACID OR METHYL-5-AMINOLEVULINIC ACID AND A CHEMOTHERAPEUTIC AGENT” (JLP Health GmbH, priority 2020, published 2023).

Series [1] has as its system cancer cell lines originating from other tissues. Nature of the series: 6-day cell survival assay, cancer cell lines originating from other tissues (summary). Conditions: lung, liver, breast, pancreas lines. Type of series: cell-based. As to the method:
Cell survival assays (FIGS. 12-19) were performed in 96-well plates in technical duplicates. Treatments started 24 hours post cell plating and lasted for 6-days prior to cell viability assessment with the Cell Titer Glo 2.0 Luminescent assay (Promega, G9242).

The test system of series [2] is mouse ESCs. Put plainly: Cell survival of artemisinin treated mouse embryonic stem cells (Alamar Blue, 48 h). Type of series: cell-based. Conditions: artemisinin combined with acifluorfen or 5-ALA (0.5 mM). The procedure:
For dosage responses, cells were seeded in 96-wells (25.000/ 96-well, in triplicate -where indicated) and subjected to compounds for 48 h. Cell viability was assessed using automated cell counting (high-throughput flow cytometry), Alamar Blue staining (Invitrogen, DAL1100) or CellTiter-Glo Luminescent Assay (Promega, G7570, according to the manufacturer’s protocol) respectively.
In general terms: The colour change of resazurin is a common sign of viable cells or microbes.

Series [3] deals with mouse ESCs. Put plainly: Competitive growth assay of wild-type and knockout sister ESC clones in presence of artemisinin. Type of series: cell-based. Conditions: mixed labelled cells, artemisinin exposure, flow cytometry. As to the method:
Haploid ESCs harbouring gene traps in nomic introns were seeded at low density in normal ESC growth medium and infected for 12 h with two viruses, one encoding mCherry plus Cre recombinase and the other coding for GFP, both together with puromycin (Invivogen, ant-pr-1). Infected cells were selected (final concentration of puromycin, 1 µg/ml) after 24 h and expanded. Ratios of GFP- to mCherry/Cre-expressing cells in the presence and absence of artemisinin were determined using high-throughput flow cytometry (BD LSRFortessa HTS Cell Analyzer).
For orientation: Flow cytometry measures light scatter and fluorescence of single cells or particles in a stream.

Series [4] concerns neuroblastoma cells (SHSY5Y), Jurkat and HL-60 cells. Put plainly: ROS levels by Dihydroethidium (DHE) staining and flow cytometry in cell lines. Type of series: cell-based. Conditions: artemisinin alone; Jurkat and HL-60 cells, 48 h. As to the method: Treated cells were collected, washed with 1x HBSS (without Ca2+ and Mg2+), incubated with 1mM DHE (Dihydroethidium (Hydroethidine), Invitrogen, D11347) in 1x HBSS for 45 min at 37° C., washed twice and counterstained with DAPI or a viability dye (eBioscience™ Fixable Viability Dye eFluor™ 780, 65-0865-18) for 10 min on ice. Cells were then collected, strained and analysed using flow cytometry for DHE in the red fluorescent spectrum (PE channel).

In series [5] the test system is human cerebral tumor organoids (CNS-PNET). Put plainly: Compound profiling in CNS-PNET cerebral tumor organoids (GFP-positive tumor cells). Conditions: very high concentrations, compound alone. Type of series: cell-based. The procedure: Tumor initiation was induced by either oncogene amplification, using a Sleeping Beauty (SB) transposase, or mutation of tumor suppressor genes, using the CRISPR-Cas9 system in day 10 old embryoid bodies (EBs). Plasmids carrying the transposase as well as GFP and the desired oncogenes or expressing Cas9 nuclease were introduced by electroporation. In brief, a mixture of 1 μg DNA and 100 μl nucleofector solution was added to 10 EBs and transferred to a nucleofection cuvette. The Lonza Nucleofector 2b and the A-023 program were used for electroporation/ nucleofection. Thereafter, EBs were transferred into 10 cm dishes containing differentiation media containing vitamin A and embedded into Matrigel 24 hours later. Two different types of tumors were initiated {Bian:2018gs}: Central nervous system primitive neuroectodermal tumors (CNS-PNET) were induced by the overexpression of Myc. Glioblastoma-like tumor group 2 (GBM-2) was caused by mutagenesis of the tumor suppressor genes p53, NF1 and PTEN. All plasmids were designed by Shan Bian {Bian, S. et al. Genetically engineered cerebral organoids model brain tumor formation. Nat. Methods 15, 631-639 (2018)}. Cerebral tumor organoids were treated with different compounds and the survival and growth of transformed as well as untransformed neurons was monitored. Fluorescence labeling of tumor cells allowed clear distinguishability of transformed cells as compared to non-labeled throughout the experiment using brightfield microscopy, as well as fluorescence imaging. The transformed tumor tissue and untransformed neurons within the same organoid was monitored using fluorescence imaging, as well as brightfield microscopy throughout the experiment. At the endpoint of the treatment (d5 or d7 respectively), the number of GFP-positive cells was assessed by flow cytometry. Cerebral (tumor) organoids were enzymatically and mechanically dissociated using 1x trypsin, 35-45 min incubation at 37° C., and gentle shaking. […] Single cells in suspension were counterstained with DAPI or a viability dye (eBioscienceTM Fixable Viability Dye eFluorTM 780, 65-0865-18), and analysed using flow cytometry (BD LSRFortessa HTS Cell Analyzer). The amounts of GFP-positive cells were analyzed. […] Brightfield and green fluorescence images were taken from the same area. Additionally, for image analyses, the Celldiscoverer 7 (Zeiss), a fully integrated high-end automated live cell imaging system, was used. Cerebral organoids were fixed in 4% PFA (room temperature, 1 h), incubated with 30% sucrose (4° C., o/n), OCT (Tissue-tek OCT Compound, […], 4583) embedded and 20 μm sections were cryostat cut (-12/-14° C.). […] Fluorescence Mounting Medium (Dako, S302380) was used for mounting the sample slides. […]

The subject of series [6] is human glioblastoma-like neoplastic organoid model. Nature of the series: Compound profiling in human glioblastoma-like neoplastic organoid model (p53, NF1, PTEN mutated). Conditions: compound alone. Type of series: cell-based. The procedure: Tumor initiation was induced by either oncogene amplification, using a Sleeping Beauty (SB) transposase, or mutation of tumor suppressor genes, using the CRISPR-Cas9 system in day 10 old embryoid bodies (EBs). Plasmids carrying the transposase as well as GFP and the desired oncogenes or expressing Cas9 nuclease were introduced by electroporation. In brief, a mixture of 1 μg DNA and 100 μl nucleofector solution was added to 10 EBs and transferred to a nucleofection cuvette. The Lonza Nucleofector 2b and the A-023 program were used for electroporation/ nucleofection. […] Cerebral tumor organoids were treated with different compounds and the survival and growth of transformed as well as untransformed neurons was monitored. Fluorescence labeling of tumor cells allowed clear distinguishability of transformed cells as compared to non-labeled throughout the experiment using brightfield microscopy, as well as fluorescence imaging. The transformed tumor tissue and untransformed neurons within the same organoid was monitored using fluorescence imaging, as well as brightfield microscopy throughout the experiment. At the endpoint of the treatment (d5 or d7 respectively), the number of GFP-positive cells was assessed by flow cytometry. […] Brightfield and green fluorescence images were taken from the same area. […]

The subject of series [7] is colorectal cancer (CRC) cells. Conditions: reported in literature; cited from earlier work.

Starred links: 1 amine or outer side, 2 acyl side, 3 side chain; linkers in the order of their positions; H or OH if unused. Positions of bridges follow the written chain, without caps; N, C: chain ends. Non-standard residues stand in square brackets, D forms with d. Residues, ends and D or L forms follow the SMILES beside them. Chains are numbered I, II in the order given. Actinocin(9to1) = Cc1c2oc3c(C)ccc(C(=O)[*:1])c3nc-2c(C(=O)[*:2])c(N)c1=O; NMeV = CN[C@H](C(=O)O)C(C)C; Sar = CNCC(=O)O

`O=c1[nH]cc(F)c(=O)[nH]1` [5-fluorouracil]: the “effect of the chemotherapeutic agent when combined with the double combination ART/DHA/ARS with 5-ALA” value in series [1] is given as “enhances”.

As to `O=C(O)c1cc(Oc2ccc(C(F)(F)F)cc2Cl)ccc1[N+](=O)[O-]` [acifluorfen], the “susceptibility to artemisinin (cell survival)” value in the series on mouse ESCs [2] is reported as “increased resistance to artemisinin”.

As for `C[C@@H]1CC[C@H]2[C@@H](C)C(=O)O[C@@H]3O[C@@]4(C)CC[C@@H]1[C@]32OO4` [artemisinin], the “relative growth of wild-type (mCherry_Cre) and knockout (GFP) sister cell clones” value in the series on mouse ESCs [3] was “selective loss of wild-type (mCherry_Cre) and strong expansion of knockout cells (GFP)”. Besides, the “ROS levels (DHE)” value in series [4] is “increased levels of ROS”. The “growth of GFP-positive tumor organoids” value in series [5] is “notable growth inhibition”. Further, the “survival of untransformed and transformed cells” value in series [6] is recorded as “little effect on the survival of untransformed cells as well as transformed cells”. In addition, in series [7], the cytotoxicity entry was “specific cytotoxicity”.

As for `N.N.O=C([O-])C1(C(=O)[O-])CCC1.[Pt+2]` [carboplatin], the “effect of the chemotherapeutic agent when combined with the double combination ART/DHA/ARS with 5-ALA” value in series [1] is given as “enhances”.

Regarding `N.N.[Cl][Pt][Cl]` [cisplatin], in series [1], the “effect of the chemotherapeutic agent when combined with the double combination ART/DHA/ARS with 5-ALA” value is “enhances”.

With `Cc1c2oc3c(C)ccc(C(=O)N[C@@H]4C(=O)N[C@H](C(C)C)C(=O)N5CCC[C@H]5C(=O)N(C)CC(=O)N(C)[C@@H](C(C)C)C(=O)O[C@@H]4C)c3nc-2c(C(=O)N[C@@H]2C(=O)N[C@H](C(C)C)C(=O)N3CCC[C@H]3C(=O)N(C)CC(=O)N(C)[C@@H](C(C)C)C(=O)O[C@@H]2C)c(N)c1=O` [dactinomycin] (I: T[dV]P[Sar][NMeV] / II: T[dV]P[Sar][NMeV]; ester I:1-I:C, II:1-II:C; linker I:N-II:N via Actinocin(9to1)), in series [1], the “effect of the chemotherapeutic agent when combined with the double combination ART/DHA/ARS with 5-ALA” value is reported as “enhances”.

As for `COc1cccc2c1C(=O)c1c(O)c3c(c(O)c1C2=O)C[C@@](O)(C(=O)CO)C[C@@H]3O[C@H]1C[C@H](N)[C@H](O)[C@H](C)O1` [doxorubicin], the “effect of the chemotherapeutic agent when combined with the double combination ART/DHA/ARS with 5-ALA” value in series [1] is reported as “enhances”.

With `COc1cccc2c1C(=O)c1c(O)c3c(c(O)c1C2=O)C[C@@](O)(C(=O)CO)C[C@@H]3O[C@H]1C[C@H](N)[C@@H](O)[C@H](C)O1` [epirubicin], in series [1], the “effect of the chemotherapeutic agent when combined with the double combination ART/DHA/ARS with 5-ALA” value is reported as “enhances”.

On to `COC(=O)C[C@](O)(CCCC(C)(C)O)C(=O)O[C@@H]1C(OC)=C[C@]23CCCN2CCc2cc4c(cc2[C@H]13)OCO4` [homoharringtonin], for which, in series [1], the “effect of the chemotherapeutic agent when combined with the double combination ART/DHA/ARS with 5-ALA” value is on record as “enhances”.

On to `O=NN(CCCl)C(=O)NC1CCCCC1` [lomustine], for which, in series [1], the “effect of the chemotherapeutic agent when combined with the double combination ART/DHA/ARS with 5-ALA” value is “enhances”.

With `CC(C)[C@]12O[C@H]1[C@@H]1O[C@]13[C@]1(O[C@H]1C[C@H]1C4=C(CC[C@@]13C)C(=O)OC4)[C@@H]2O` [triptolide], the “effect of the chemotherapeutic agent when combined with the double combination ART/DHA/ARS with 5-ALA” value in series [1] is recorded as “enhances”.

Consider vinorebine, for which the “effect of the chemotherapeutic agent when combined with the double combination ART/DHA/ARS with 5-ALA” value in series [1] is reported as “enhances”.
